Measured values from patent US10441668B2, “System and method for enhanced mass spectrometry imaging” (University Health Network, priority 2014, dated 2019).
Several values for one entry are separate records, joined by “and”; a condition that tells them apart may be missing. Identical values can stand only once.

Key:
breast cancer tumors = assay: kinetic DCE magnetic resonance imaging of contrast agent passively targeted to breast cancer tumors in live mice; format: in vivo; conditions: intravenous injection into tail vein
Method: Referring now to FIGS. 3A and 3B, shown therein are the results of kinetic DCE magnetic resonance imaging of an exogenous contrast agent (in this example Gadoteridol) that was passively targeted to breast cancer tumors in live mice. In both cases, Gadoteridol was intravenously injected into the tail vein of mice under anesthesia with isofluorane.
A first MR image 305 was taken at the time of injection. […] A second MR image 310 was taken at 5 minutes post injection.
As indicated by legend 322, the maximum signal intensity appears to reach its peak in plot 320 after 5 minutes. The exogenous agent was seen to penetrate and diffuse into the tumor core from the peripheries of the tumor.
A second MR image 345 was taken at 5 minutes post injection.
(§1) To obtain the images shown below in FIGS. 5A-5C and FIGS. 6A-6C, SCID mice (from Harlan Laboratories) were inoculated in the lower mammary fat pad with 3×106 human MDA-MB-231 triple negative metastatic breast cancer cells and housed for 3 weeks to grow tumors up to 1 cm in diameter (caliper measurements). […] Throughout the imaging sessions, the animals' breathing was monitored using a respiratory pad and a respiratory tracking system (when imaged on the 1T Aspect or 7T Bruker MRI system, ˜30 min per imaging session).

[1] = test system: human MDA-MB-231 breast cancer tumors; assay: two-dimensional DESI-MS imaging of contrast agent distribution in excised human breast cancer tumor slices; format: in vivo, SCID mice; conditions: 5 minutes post injection, DESI-MS images vs H&E stained images
Method: All the DESI-MS experiments described herein were performed using a Thermo Fisher Scientific LTQ mass spectrometer (San Jose, Calif., USA). Data was acquired and processed using QualBrowser Xcalibur 2.0 (Thermo Fisher Scientific). Mass spectra were acquired as full scans, in the positive ion mode, over the mass to charge ratio range from m/z 500 to 900. Typical instrumental parameters used were 4.5 kV capillary voltage and 275° C. capillary temperature. An H2O-MeOH (1:1) solution was used as the spray solvent and delivered at the flow rate of 1.5 μL min-1. Methanol (MeOH) and ultra-pure water (H2O), both HPLC-MS grade, were purchased from Sigma Aldrich (Oakville, ON, Canada). The sprayer-to-surface distance was 1.0 mm, the sprayer to inlet distance was 6-8 mm, an incident spray was set at 54°, and a collection angle of 10° was used. […]
as §1, with “session). […]” for “session).”

breast cancer tumor = assay: ICP-MS quantification of Gd in sections of breast cancer tumor after acid extraction; format: in vivo, mice; conditions: 200 μm thick tumor slice
From the text: Referring now to FIG. 10B, shown therein are the results of quantitative analysis of the distribution of an exogenous agent in a section of a breast cancer tumor. Here, ICP-MS was used to quantify the amount of Gadolinium (Gd) element in a 200 um thick section of the breast cancer tumor shown in FIG. 10A. The distribution of all three contributing Gadoteridol adducts (discussed above with reference to FIG. 4) are shown overlaid on an image of the tumor section.
To validate the ion abundances shown in the DESI-MS image 1000, a 200 μm think-slice of tumor was sectioned into three areas (1025, 1030 and 1040). The total tissue weight in each section was determined using an analytical balance and Gadoteridol was acid extracted for ICP-MS quantification. Gadoteridol was extracted using excess volume (e.g., 3.5 mls for every 1 mg tissue material in two rounds) of 10% perchloric acid through mixing and vortexing followed by a 30 min centrifugation at 21,000G taking the supernatant that was then diluted 5× with double distilled water. For ICP-MS analysis both the standard Gadoteridol solutions and the extracted samples were taken up in excess 2% nitric acid (1000 fold dilution) and were subjected to ICP-MS quantification using a Nexlon 350 ICP-MS (Perkin-Elmer).

`CC(O)CN1CCN(CC(=O)[O-])CCN(CC(=O)[O-])CCN(CC(=O)[O-])CC1.[Gd+3]` (centres unmarked) [Gadoteridol] was tested, and the “time post injection at which the tumor site exhibits maximal contrast enhancement (MR signal intensity peak)” value (breast cancer tumors) was 5 min and < 5 min, the “signal in necrotic region of the breast cancer tumor” value [1] was “no Gadoteridol signal” and the “absolute value of Gd element in tumor section, first area 1025” value (breast cancer tumor; first area 1025, ICP-MS) was 54 pg. The “absolute value of Gd element in tumor section, second area 1030” value (breast cancer tumor; second area 1030, ICP-MS) was 12.8 pg and the “absolute value of Gd element in tumor section, third area 1040” value (breast cancer tumor; third area 1040, ICP-MS) was 27.5 pg.
